For this test, the target named is Zaire ebolavirus disulfide-linked glycoprotein heterodimer (GP1-GP2) (Zaire ebolavirus, UniProt Q05320). Nature of the test: biochemical. Format: binding.

For orientation: Kd means the constant that tells how readily two partners part at equilibrium.

Zaire ebolavirus disulfide-linked glycoprotein heterodimer (GP1-GP2), sequence (Q05320 33-501 limits assumed): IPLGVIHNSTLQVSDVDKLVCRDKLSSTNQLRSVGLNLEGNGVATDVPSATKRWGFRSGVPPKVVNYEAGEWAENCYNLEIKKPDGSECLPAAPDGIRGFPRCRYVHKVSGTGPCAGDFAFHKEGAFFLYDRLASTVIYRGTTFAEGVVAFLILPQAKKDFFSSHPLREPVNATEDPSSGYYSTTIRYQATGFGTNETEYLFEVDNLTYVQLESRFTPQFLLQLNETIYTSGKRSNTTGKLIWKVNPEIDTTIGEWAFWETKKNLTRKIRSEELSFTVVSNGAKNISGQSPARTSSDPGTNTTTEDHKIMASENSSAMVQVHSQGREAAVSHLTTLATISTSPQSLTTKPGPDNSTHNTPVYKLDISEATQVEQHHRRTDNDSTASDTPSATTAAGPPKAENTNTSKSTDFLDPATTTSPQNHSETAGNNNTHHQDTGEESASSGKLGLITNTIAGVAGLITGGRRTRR
Zaire ebolavirus disulfide-linked glycoprotein heterodimer (GP1-GP2), sequence (Q05320 502-676 limits assumed): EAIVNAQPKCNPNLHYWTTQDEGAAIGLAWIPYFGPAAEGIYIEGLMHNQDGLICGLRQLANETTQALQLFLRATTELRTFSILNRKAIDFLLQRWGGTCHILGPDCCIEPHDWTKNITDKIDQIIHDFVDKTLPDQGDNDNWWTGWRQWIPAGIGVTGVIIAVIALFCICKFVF

Take `C[C@H]1[C@H](OC(=O)CCC(=O)O)O[C@@H]2O[C@@]3(C)CC[C@H]4[C@H](C)CC[C@@H]1[C@@]24OO3` [Artesunate]: the “binds to EBOV glycoprotein” value was “did not”.
The same measure, in the same setting: to `NC(=O)c1nc(F)c[nH]c1=O` [Favipiravir] belongs “did not”.
In turn, `COc1ccc2nc3cc(Cl)ccc3c(Nc3cc(CN4CCCC4)c(O)c(CN4CCCC4)c3)c2n1` [Pyronaridine, 4-[(7-Chloro-2-methoxybenzo[b][1,5]naph-thyridin-10-yl)amino]-2,6-bis(1-pyrrolidinylmethyl)phenol phosphate (1:4)] gave a Kd of 7.34 µM.
As for `CCN(CC)CCCC(C)Nc1c2ccc(Cl)cc2nc2ccc(OC)cc12` (centres unmarked) [Quinacrine], the Kd is 7.55 µM.
The same measure, in the same setting: for `CCN(CC)CCOc1ccc2c(c1)C(=O)c1cc(OCCN(CC)CC)ccc1-2` [Tilorone] the value was 0.73 µM.
